Source: patent US8609650B2, “Bridged bicyclic aryl and bridged bicyclic heteroaryl substituted triazoles useful as Axl inhibitors” (Rigel Pharmaceuticals, Inc., priority 2006, dated 2013)

Each compound was assayed against T1, Axl (Homo sapiens, UniProt P30530) (assay: Phospho-Akt In-Cell Western Assay (ability to inhibit Axl activity)). Conditions: Hela cells, stimulated by Axl-antibody cross-linking, phospho-Akt chemiluminescence normalized to relative cell number.
T1 construct: endogenous in cells; host or cells: HeLa cells
T1 sequence (P30530 26-894): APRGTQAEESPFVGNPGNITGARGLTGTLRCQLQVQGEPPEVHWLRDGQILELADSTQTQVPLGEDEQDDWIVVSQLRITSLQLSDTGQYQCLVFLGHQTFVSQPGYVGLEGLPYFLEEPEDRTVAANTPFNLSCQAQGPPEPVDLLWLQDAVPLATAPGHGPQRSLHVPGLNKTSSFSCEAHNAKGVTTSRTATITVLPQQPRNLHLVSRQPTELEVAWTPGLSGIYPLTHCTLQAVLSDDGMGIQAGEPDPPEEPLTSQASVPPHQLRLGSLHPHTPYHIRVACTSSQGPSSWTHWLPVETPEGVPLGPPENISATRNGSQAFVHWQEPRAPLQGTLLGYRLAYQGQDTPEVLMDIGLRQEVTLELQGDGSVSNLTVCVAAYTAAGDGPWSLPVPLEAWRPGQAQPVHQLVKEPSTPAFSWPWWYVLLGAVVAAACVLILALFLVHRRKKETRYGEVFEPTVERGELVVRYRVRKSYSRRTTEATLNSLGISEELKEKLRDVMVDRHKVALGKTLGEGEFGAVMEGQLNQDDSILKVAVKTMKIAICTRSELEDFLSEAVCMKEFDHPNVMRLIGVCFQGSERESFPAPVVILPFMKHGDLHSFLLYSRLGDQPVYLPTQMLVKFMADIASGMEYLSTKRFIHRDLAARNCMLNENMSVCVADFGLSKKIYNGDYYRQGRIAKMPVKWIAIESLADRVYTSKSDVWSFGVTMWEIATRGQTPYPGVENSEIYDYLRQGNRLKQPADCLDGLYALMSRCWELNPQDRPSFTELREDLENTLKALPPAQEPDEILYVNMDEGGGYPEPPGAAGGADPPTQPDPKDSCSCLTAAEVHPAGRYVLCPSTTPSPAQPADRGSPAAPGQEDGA
Assay type: cell-based
Procedure: The compounds of the invention were tested in the following assay for their ability to inhibit Axl activity.
Phospho-Akt In-Cell Western Assay
• Cell culture plate: 96 well assay plate (Corning 3610), white, clear bottom, tissue-culture treated. • Cells: Hela cells. • Starvation medium: For Axl stimulation: 0.5% FCS (fetal calf serum) in DMEM, plus Axl/Fc (extracellular domain of AXL fused to immunoglobulin Fc region) (R&D, 154-AL) 500 ng/mL. • For EGF (epidermal growth factor) stimulation: 0.5% FCS in DMEM (Dulbecco's modified Eagles medium). • Poly-L-Lysine 0.01% solution (the working solution): 10 μg/ml, dilute In PBS (phosphate buffered saline). • Axl antibody cross-linking: • 1st: Mouse anti-Axl (R&D, MAB154). • 2nd: Biotin-SP-conjugated AffiniPure goat anti-mouse IgG (H+L) (Jackson ImmunoResearch #115-065-003). • Fixing buffer: 4% formaldehyde in PBS. • Wash buffer: 0.1% TritonX-100 in PBS. • Quenching buffer: 3% H2O2, 0.1% Azide in wash buffer, Azide and hydrogen peroxide (H2O2) are added fresh. • Blocking buffer: 5% BSA in TBST (tris buffered saline plus 0.1% Tween 20). • Primary antibody: Rabbit anti-human Phospho-Akt antibody (Cell Signaling 9271): 1×250 diluted in blocking buffer. • Secondary antibody: HRP (horse radish peroxidase)-conjugated Goat anti-Rabbit secondary, stock solution: Jackson ImmunoResearch (Goat anti-Rabbit HRP, #111-035-144) 1:1 diluted in glycerol, store at −20° C. The working solution: 1×2000 dilution of stock in blocking buffer. • Chemiluminescent working solution (Pierce, 37030): SuperSignal ELISA (enzyme linked immunosorbant assay) Pico Chemiluminescent substrate. • Crystal Violet solution: Stock: 2.5% Crystal violet in methanol, filtered and kept at ambient temperature. The working solution: dilute the stock 1:20 with PBS immediately before use. • 10% SDS: working solution: 5% SDS (sodium dodecylsulfate), diluted in PBS Methods: Day 1:
A 96 well TC (tissue culture treated) plate was coated with 10 μg/mL poly-L-Lysine at 37° C. for 30 min, washed twice with PBS, and air-dried for 5 minutes before cells were added. Hela cells were seeded at 10,000 cells/well and the cells were starved in 100 μL starvation medium containing Axl/Fc for 24 hrs.
The cells were pre-treated with test compounds by adding 100 μL of 2× test compound to the starvation medium on the cells. The cells were incubated at 37° C. for 1 hr before stimulation.
The cells were stimulated by Axl-antibody cross-linking as follows: A 5×1st/2nd Axl antibody mixture was made (37.5 μg/mL 1st/100 μg/mL 2nd) in starvation medium and nutated at 4° C. with thorough mixing for 1-2 hours for clustering. The resulting mix was warmed to 37° C. 50 μL of 5× Axl 1st/2nd of antibody cluster was added to the cells and the cells were incubated at 37° C. for 5 min.
After 5 minutes stimulation, the plate was flicked to remove medium and the plate was tapped onto paper towels. Formaldehyde (4.0% in PBS, 100 μL) was added to fix the cells and the cells were incubated at ambient temperature for 20 min without shaking.
The cells were washed with a plate washer buffer to remove the formaldehyde solution. The plate was flicked to removed excess wash buffer and tapped onto paper towels. Quenching buffer (100 μL) was added to each well and the cells were incubated at ambient temperature for 20 minutes without shaking.
The cells were washed with a plate washer buffer to remove the quenching buffer. Blocking buffer (100 μL) was added and the cells were incubated at ambient temperature for at least an hour with gentle shaking.
The cells were washed with a plate washer buffer and diluted primary antibody (50 μL) was added to each well (blocking buffer was added to the negative control wells instead). The plates were incubated overnight at 4° C. with gentle shaking.
The wash buffer was removed, diluted secondary antibody (100 μL) was added, and the cells were incubated at ambient temperature for 1 hour with gentle shaking. […]
With `CN1CCN(C2CCN(c3ccc(Nc4nc(N)n(-c5cc(-c6ccccc6)c6c(n5)C5CCN6CC5)n4)cc3F)CC2)CC1` [Compound 41, 1-(1,4-ethano-8-phenyl-1,2,3,4-tetrahydro-1,5-naphthyridin-6-yl)-N^3-(3-fluoro-4-(4-(4-methylpiperazin-1-yl)piperidin-1-yl)phenyl)-1H-1,2,4-triazole-3,5-diamine] the IC50 was less than 1 µM.
With `CN1CCN(c2ccc(Nc3nc(N)n(-c4nnc(-c5ccccc5)c5c4C4CCC5C4)n3)cc2)CC1` (stereo not shown) [Compound 42, 1-(5,8-methano-1-phenyl-5,6,7,8-tetrahydrophthalazine-4-yl)-N^3-(4-(4-methylpiperazin-1-yl)phenyl)-1H-1,2,4-triazole-3,5-diamine] the IC50 was less than 1 µM.
With `Nc1nc(Nc2ccc(N3CCC(N4CCCC4)CC3)c(F)c2)nn1-c1cc(-c2ccccc2)c2c(n1)C1CCC2C1` (stereo not shown) [Compound 43, 1-(5,8-methano-4-phenyl-5,6,7,8-tetrahydroquinoline-2-yl)-N^3-(3-fluoro-4-(4-(pyrrolidin-1-yl)piperidin-1-yl)phenyl)-1H-1,2,4-triazole-3,5-diamine] the IC50 was less than 1 µM.
For `Nc1nc(Nc2ccc(N3CCN(C4CCCCC4)CC3)c(F)c2)nn1-c1cc(-c2ccccc2)c2c(n1)C1CCC2C1` (stereo not shown) [Compound 44, 1-(5,8-methano-4-phenyl-5,6,7,8-tetrahydroquinoline-2-yl)-N^3-(3-fluoro-4-(4-cyclohexylpiperazin-1-yl)phenyl)-1H-1,2,4-triazole-3,5-diamine], the IC50 was 1 to 10 µM.
For `CN1CCN(c2ccc(Nc3nc(N)n(-c4cc(-c5ccccc5)c5c(n4)C4CCC5C4)n3)cc2)CC1` (stereo not shown) [Compound 45, 1-(5,8-methano-4-phenyl-5,6,7,8-tetrahydroquinoline-2-yl)-N^3-(4-(4-methylpiperazin-1-yl)phenyl)-1H-1,2,4-triazole-3,5-diamine], the IC50 was less than 1 µM.
In the case of `CN1CCN(C2CCN(c3ccc(Nc4nc(N)n(-c5cc(-c6cccs6)c6c(n5)C5CCC6C5)n4)cc3F)CC2)CC1` (stereo not shown) [Compound 47, 1-(5,8-methano-4-thiophen-2-yl-5,6,7,8-tetrahydroquinoline-2-yl)-N^3-(3-fluoro-4-(4-(4-methylpiperazin-1-yl)piperidin-1-yl)phenyl)-1H-1,2,4-triazole-3,5-diamine], the IC50 is reported as less than 1 µM.
With `Nc1nc(Nc2ccc3c(c2)CCC(N2CCCC2)CC3)nn1-c1cc(-c2cccs2)c2c(n1)C1CCC2C1` (stereo not shown) [Compound 48, 1-(5,8-methano-4-thiophen-2-yl-5,6,7,8-tetrahydroquinoline-2-yl)-N^3-(7-pyrrolidin-1-yl-6,7,8,9-tetrahydro-5H-benzo[7]annulene-3-yl)-1H-1,2,4-triazole-3,5-diamine] the IC50 was less than 1 µM.
`Nc1nc(Nc2ccc3c(c2)CCC(N2CCCC2)CC3)nn1-c1cc(-c2ccccc2)c2c(n1)C1CCC2C1` (stereo not shown) [Compound 49, 1-(5,8-methano-4-phenyl-5,6,7,8-tetrahydroquinoline-2-yl)-N^3-(7-pyrrolidin-1-yl-6,7,8,9-tetrahydro-5H-benzo[7]annulene-3-yl)-1H-1,2,4-triazole-3,5-diamine] showed an IC50 of less than 1 µM.
In the case of `Cc1cc(Nc2nc(N)n(-c3cc(-c4ccccc4)c4c(n3)C3CCN4CC3)n2)cnc1N1CCN(CC2CC2)CC1` [Compound 50, 1-(1,4-ethano-8-phenyl-1,2,3,4-tetrahydro-1,5-naphthyridin-6-yl)-N^3-(3-methyl-2-(4-cyclopropylmethylpiperazin-1-yl)pyridine-5-yl)-1H-1,2,4-triazole-3,5-diamine], the IC50 is reported as less than 1 µM.
Compound `Cc1cc(Nc2nc(N)n(-c3cc(-c4ccccc4)c4c(n3)C3CCC4C3)n2)cnc1N1CCN(CC2CC2)CC1` (stereo not shown) [Compound 51, 1-(5,8-methano-4-phenyl-5,6,7,8-tetrahydroquinoline-2-yl)-N^3-(3-methyl-2-(4-cyclopropylmethylpiperazin-1-yl)pyridine-5-yl)-1H-1,2,4-triazole-3,5-diamine] has an IC50 of 1 to 10 µM.
`Cc1cc(Nc2nc(N)n(-c3cc(-c4cccs4)c4c(n3)C3CCC4C3)n2)cnc1N1CCN(CC2CC2)CC1` (stereo not shown) [Compound 52, 1-(5,8-methano-4-thiophen-2-yl-5,6,7,8-tetrahydroquinoline-2-yl)-N^3-(3-methyl-2-(4-cyclopropylmethylpiperazin-1-yl)pyridine-5-yl)-1H-1,2,4-triazole-3,5-diamine] gave an IC50 of less than 1 µM.
`Nc1nc(Nc2ccc(N3CCC(N4CCCC4)CC3)c(F)c2)nn1-c1cc(-c2cccs2)c2c(n1)C1CCC2C1` (stereo not shown) [Compound 53, 1-(5,8-methano-4-thiophen-2-yl-5,6,7,8-tetrahydroquinoline-2-yl)-N^3-(3-fluoro-4-(4-(pyrrolidin-1-yl)piperidin-1-yl)phenyl)-1H-1,2,4-triazole-3,5-diamine] was tested, and the IC50 was less than 1 µM.
`CN(C)C1CCN(c2ccc(Nc3nc(N)n(-c4cc(-c5cccs5)c5c(n4)C4CCC5C4)n3)cc2F)CC1` (stereo not shown) [Compound 54, 1-(5,8-methano-4-thiophen-2-yl-5,6,7,8-tetrahydroquinoline-2-yl)-N^3-(3-fluoro-4-(4-dimethylaminopiperidin-1-yl)phenyl)-1H-1,2,4-triazole-3,5-diamine] showed an IC50 of less than 1 µM.
In the case of `CCOC(=O)CN1CCN(c2ccc(Nc3nc(N)n(-c4cc(-c5ccccc5)c5c(n4)C4CCN5CC4)n3)cc2F)CC1` [Compound 55, 1-(1,4-ethano-8-phenyl-1,2,3,4-tetrahydro-1,5-naphthyridin-6-yl)-N^3-(3-fluoro-4-(4-ethyloxycarbonylmethylpiperazin-1-yl)phenyl)-1H-1,2,4-triazole-3,5-diamine], the IC50 is reported as less than 1 µM.
Work on `Nc1nc(Nc2ccc(N3CCN(CC(=O)O)CC3)c(F)c2)nn1-c1cc(-c2ccccc2)c2c(n1)C1CCN2CC1` [Compound 56, 1-(1,4-ethano-8-phenyl-1,2,3,4-tetrahydro-1,5-naphthyridin-6-yl)-N^3-(3-fluoro-4-(4-carboxymethylpiperazin-1-yl)phenyl)-1H-1,2,4-triazole-3,5-diamine] yielded an IC50 of less than 1 µM.
`Nc1nc(Nc2ccc(N3CCC(N4CCCC4)CC3)c(F)c2)nn1-c1cc(-c2ccc(C(F)(F)F)cc2)c2c(n1)C1CCN2CC1` [Compound 57, 1-(1,4-ethano-8-(4-trifluoromethylphenyl)-1,2,3,4-tetrahydro-1,5-naphthyridin-6-yl)-N^3-(3-fluoro-4-(4-(pyrrolidin-1-yl)piperidin-1-yl)phenyl)-1H-1,2,4-triazole-3,5-diamine] showed an IC50 of less than 1 µM.
